As a reminder, the IC50 is the concentration that gives 50% inhibition.

Data on 1 compound can be found in US9856273B2, “ETP derivatives” (priority 2012, dated 2018).

In data set [1] the test system is Su.86.86 pancreatic cancer cell line. The data set is described as follows: MTS assay. Type of data set: cell-based. As to the method:
(§1) MTS Assay: Panc1, BxPC3, or SU.86.86 cells were seeded in a 96-well plate at a density of 7500 cells/well prior to treatment with increasing amounts of ETP69 or DMSO vehicle control. Forty-eight hours post treatment cells were incubated with the MTS substrate (CellTiter 96 AQueous One Solution Cell Proliferation Assay, Promega, Madison, Wis.) according to the manufacturer's instructions. The absorbance was measured at 490 nm using a 96-well plate reader (Synergy 4, Biotek), and the data were normalized to the absorbance of DMSO-treated cells. IC50 values were determined using GraphPad Prism's non-linear regression function. See FIGS. 11, 21, 22A, 22B, 23, 24A, 24B, 24C, 25A and 25B.
On the technique in general: Formazan colour is commonly taken as a measure of viable cells.

The subject of data set [2] is BxPC3 pancreatic cancer cell line. The data set is described as follows: MTS assay. It counts as cell-based. As to the method:
as §1

Data set [3] has as its system Panc1 pancreatic cancer cell line. The data set is described as follows: MTS assay. As to conditions: Homo sapiens, PANC-1; Panc1, 48 h. Type of data set: cell-based. As to the method: as §1
In data set [4] the test system is H3K9 trimethylation. The data set is described as follows: Western blot of histone H3 (trimethyl K9) in A2058 melanoma cells. Type of data set: cell-based, human. As to the method:
Western blot analyses were performed with specific antibodies. Briefly, human A2058 melanoma, DU145 prostate, A549 non-small lung and SKOV3 ovarian cancer cells were treated with ETP69. Whole-cell lysates (40 […]g) or histone extracts (10 […]g) were resolved by SDS-PAGE. Primary specific antibodies to histone H3 and histone H3 (trimethyl K9) were incubated in PBS (pH 7.5) with 0.1% (v/v) Tween-20 and 5% (w/v) BSA with gentle agitation overnight at 4° C. Other specific antibodies were diluted in PBS (pH 7.5) with 5% (w/v) nonfat milk and 0.1% (v/v) Tween-20 over night at 4° C. Horseradish peroxidase-conjugated secondary antibodies were incubated in PBS (pH 7.5) with 5% (w/v) nonfat milk and 0.1% (v/v) Tween-20 for 1 h at room temperature. Positive immuno-reactive proteins were detected using the ECL system (Pierce, Rockford, Ill.).
(In general: Immunoblotting shows a protein as a band on a membrane.)

Data set [5] deals with SKOV3 xenografts. It counts as in vivo, mouse. As to conditions: SKOV3 xenograft, 2.5 mg/kg IP once daily for 18 days. As to the method: Human SKOV3 cancer cells (4×10^6) were resuspended in serum-free McCoy's medium and Matrigel (ration of 1:1) and subcutaneously injected into the flank of 5-6 weeks old female NOD/SCID/IL-2rg(ko)(NSG). When palpable tumor sizes reached at approximately 50 mm^3, mice were divided into two groups (vehicle=9, treatment=9). Then, ETP69 was administered with IP injection at 2.5 mg/kg with vehicle (5% DMSO+15% Solutol+80% H2O), once daily for 18 days. Tumor volumes were calculated by the formula 1/2a×b^2, where a is the long diameter, and b is the short diameter. Tumor volumes correlate with tumor weights. The statistical significance of group differences was analyzed using a Student's t-test with the two-tailed distribution. P values less than 0.05 were considered statistically significant.

As for `CN1C(=O)[C@@]23C[C@](C)(C#N)[C@H](c4ccc5c(c4)OCO5)N2C(=O)[C@]1(C)SS3` (racemic) [ETP69, Rac-(3S,6S,7S,8aS)-6-(Benzo[d][1,3]dioxol-5-yl)-2,3,7-trimethyl-1,4-dioxohexahydro-6H-3,8a-epidithiopyrrolo[1,2-a]pyrazine-7-carbonitrile], the IC50 in data set [1] (Homo sapiens, SU.86.86, 48 h) turned out to be 86 nM; in data set [2] (Homo sapiens, BXPC-3, BxPC3, 48 h), 210 nM; in data set [3], 824 nM. For the same compound, the killing of cells result in data set [1] (SU86.86, 100 nM to 1000 nM) is given as “significant killing”; in data set [2] (BxPC3, 100 nM to 1000 nM) it was “significant killing”. In addition, the “inhibition of H3K9 trimethylation” value in data set [4] was “inhibition”. The toxicity symptoms result in data set [5] was “no observable toxicity symptoms”. In addition, the tumor volume result in data set [5] is “decreased”. In data set [5], the tumor weight entry is listed as “decreased”.
